Assay results reported in US20220054520A1, “OPHTHALMIC COMPOSITION CONTAINING DIQUAFOSOL OR SALT THEREOF, VINYL-BASED POLYMER AND CELLULOSE-BASED POLYMER” (SANTEN PHARMACEUTICAL CO., LTD., priority 2019, published 2022).

System: rat dorsal root ganglion neurons
Assay: Stimulativeness of diquafosol sodium to peripheral nerves, intracellular calcium fluorescence (FLIPR Calcium 6)
Assay type: cell-based
Experimental: The stimulativeness of diquafosol sodium to peripheral nerves in the coexistence of PVP was examined.
Cultured peripheral nerve cells (rat dorsal root ganglion neurons, purchased from Lonza Japan Ltd.) were incubated in a buffer solution (FLIPR Calcium 6 Assay Kit, Molecular Devices, LLC.) including intracellular fluorescent calcium indicator dyes. 40% of the total buffer solution was replaced with each of the aforementioned formulation solutions. The non-stimulation group and the stimulated control group were treated with the buffer solutions instead of the formulation solutions in the same manner. After allowing to stand at room temperature, the fluorescence measurement of the calcium indicator dyes with an elapse of time was started by using a fluorescent plate reader. Diquafosol sodium (final concentration: 0.3%) was added after 60 seconds from the start, and the measurement of fluorescence intensity was continued.
The maximum fluorescence intensity (RFUmax) after addition of diquafosol sodium was calculated relative to the fluorescence intensity (RFU) immediately before the addition as 100%.

O=c1ccn([C@@H]2O[C@H](COP(=O)([O-])OP(=O)([O-])OP(=O)([O-])OP(=O)([O-])OC[C@H]3O[C@@H](n4ccc(=O)[nH]c4=O)[C@H](O)[C@@H]3O)[C@@H](O)[C@H]2O)c(=O)[nH]1.[Na+].[Na+].[Na+].[Na+] [diquafosol sodium, diquafosol tetrasodium salt]
fluorescence intensity / signal of intracellular calcium ions after addition of diquafosol sodium (in words) (peripheral nerve cells exposed to diquafosol sodium 0.3%, with or without formulation solution): rapidly increased
maximum fluorescence intensity (RFUmax) after addition of diquafosol sodium (stimulated control group: buffer solution instead of formulation solution, diquafosol sodium final concentration 0.3%, RFU before addition as 100%): ≥ 103.5%
